The structures appear in SMILES notation.

The target of the first assay is T1, viral kinase pUL-97 (Human cytomegalovirus, UniProt P16788).
T1 construct: The pUL-97 gene was cloned into a baculovirus vector; GST (glutathione S-transferase) (N); made in house; host or cells: Sf9 insect cells, baculovirus
T1 sequence (P16788 whole entry): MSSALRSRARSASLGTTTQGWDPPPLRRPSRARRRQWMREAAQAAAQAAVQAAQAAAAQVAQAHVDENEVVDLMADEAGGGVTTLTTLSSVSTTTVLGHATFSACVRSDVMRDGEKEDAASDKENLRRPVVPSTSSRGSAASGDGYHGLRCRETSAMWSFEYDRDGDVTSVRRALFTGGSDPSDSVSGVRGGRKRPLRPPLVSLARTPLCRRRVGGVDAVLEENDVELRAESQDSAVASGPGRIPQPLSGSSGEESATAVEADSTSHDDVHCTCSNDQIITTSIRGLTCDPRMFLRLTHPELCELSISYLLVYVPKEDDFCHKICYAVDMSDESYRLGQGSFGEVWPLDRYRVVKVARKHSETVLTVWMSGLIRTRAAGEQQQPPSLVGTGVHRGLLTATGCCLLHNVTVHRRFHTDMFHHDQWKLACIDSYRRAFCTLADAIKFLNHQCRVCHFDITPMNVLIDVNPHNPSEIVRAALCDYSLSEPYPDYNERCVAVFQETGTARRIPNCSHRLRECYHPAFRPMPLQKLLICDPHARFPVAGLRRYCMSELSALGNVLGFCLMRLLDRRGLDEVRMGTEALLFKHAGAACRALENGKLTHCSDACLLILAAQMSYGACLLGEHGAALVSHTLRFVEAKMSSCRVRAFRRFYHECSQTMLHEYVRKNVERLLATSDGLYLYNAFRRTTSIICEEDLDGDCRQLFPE
Kind of assay: UL97 kinase assay on Immobilon plate. Format: biochemical. The conditions noted are these: inhibition of UL 97 kinase activity; class by IC50 / % inhibition at 10 μM or 100 μM; read-out: Activity Class [A, B, C]. In short, it runs like this:
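GST-pUL97 from baculovirus-infected Sf9 cells phosphorylated myelin basic protein with ATP (3 μM in the added assay buffer) and γ-[33P]ATP in Tris-HCl pH 7.5 buffer with MnCl2 and DTT. Reaction ran 1 h at 30 °C with graded compound concentrations and was stopped with EDTA. 33P incorporation was measured by scintillation after filter capture and phosphoric acid washes.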
For `Cc1cccc(-c2cncc(N3CCN(c4ccc(Cl)cc4)CC3)n2)c1` [compound 325, 4-(4-Chloro-phenyl)-6′-m-tolyl-3,4,5,6-tetrahydro-2H-[1,2′]bipyrazinyl], the IC50 is 10 to 100 µM.

Regarding `CC(=O)c1cccc(-c2cncc(N3CCN(c4cnccn4)CC3)n2)c1` [compound 312, 1-[3-(2′,3′,5′,6′-Tetrahydro-[2,1′;4′,2″]terpyrazin-6-yl)-phenyl]-ethanone], the IC50 was 1 to 10 µM.

Consider `Clc1ccc(N2CCN(c3cncc(-c4cccc5ccccc45)n3)CC2)cc1Cl` [compound 287, 4-(3,4-Dichloro-phenyl)-6′-naphthalen-1-yl-3,4,5,6-tetrahydro-2H-[1,2′]bipyrazinyl], for which the IC50 lay within 10 to 100 µM.

As for `CC(=O)c1ccc(N2CCN(c3cncc(-c4ccccc4Oc4ccccc4)n3)CC2)cc1` [compound 215, 1-{4-[6′-(2-Phenoxy-phenyl)-2,3,5,6-tetrahydro-[1,2′]bipyrazinyl-4-yl]-phenyl}-ethanone], the IC50 lay in the range of 10 to 100 µM.

On to `CN(C)c1ccc(-c2cncc(N3CCN(c4ccc(F)cc4F)CC3)n2)cc1` [compound 208], for which the IC50 was in the range of 1 to 10 µM.

For the compound `OCc1ccc(-c2cncc(N3CCN(c4ccncc4)CC3)n2)cc1` [compound 258, [4-(4-Pyridin-4-yl-3,4,5,6-tetrahydro-2H-[1,2′]bipyrazinyl-6′-yl)-phenyl]-methanol], the IC50 was in the range of 1 to 10 µM.

Turning to `Cc1cccc(-c2cncc(N3CCN(c4ccc(F)cc4)CC3)n2)c1` [compound 232, 4-(4-Fluoro-phenyl)-6′-m-tolyl-3,4,5,6-tetrahydro-2H-[1,2′]bipyrazinyl], the IC50 lay within 10 to 100 µM.

Turning to `COc1ccc(N2CCN(c3cncc(-c4cc5ccccc5o4)n3)CC2)cc1` [compound 282, 6′-Benzofuran-2-yl-4-(4-methoxy-phenyl)-3,4,5,6-tetrahydro-2H-[1,2′]bipyrazinyl], the IC50 lay in the range of 1 to 10 µM.

Consider `CC(=O)c1cccc(-c2cncc(N3CCN(c4cccc(C)c4C)CC3)n2)c1` [compound 297, 1-{3-[4-(2,3-Dimethyl-phenyl)-3,4,5,6-tetrahydro-2H-[1,2′]bipyrazinyl-6′-yl]-phenyl}-ethanone], for which the IC50 lay within 10 to 100 µM.

With `c1ccc2c(-c3cncc(N4CCN(c5ccncc5)CC4)n3)cccc2c1` [compound 221, 6′-Naphthalen-1-yl-4-pyridin-4-yl-3,4,5,6-tetrahydro-2H-[1,2′]bipyrazinyl], the IC50 fell in the range of 1 to 10 µM.

On to `COc1ccc(N2CCN(c3cncc(-c4cccc(OC)c4)n3)CC2)cc1` [compound 294, 4-(4-Methoxy-phenyl)-6′-(3-methoxy-phenyl)-3,4,5,6-tetrahydro-2H-[1,2′]bipyrazinyl], for which the IC50 is 10 to 100 µM.

For the compound `CN(C)c1ccc(-c2cncc(N3CCN(c4cccc(C(F)(F)F)c4)CC3)n2)cc1` [compound 216, Dimethyl-{4-[4-(3-trifluoromethyl-phenyl)-3,4,5,6-tetrahydro-2H-[1,2′]bipyrazinyl-6′-yl]-phenyl}-amine], the IC50 lay within 10 to 100 µM.

Regarding `Clc1ccc(N2CCN(c3cncc(-c4ccc5ccccc5c4)n3)CC2)cc1` [compound 348, 4-(4-Chloro-phenyl)-6′-naphthalen-2-yl-3,4,5,6-tetrahydro-2H-[1,2′]bipyrazinyl], the IC50 lay within 1 to 10 µM.

Regarding `Cc1ccc(N2CCN(c3cncc(-c4ccc5ccccc5c4)n3)CC2)c(C)c1` [compound 320, 4-(2,4-Dimethyl-phenyl)-6′-naphthalen-2-yl-3,4,5,6-tetrahydro-2H-[1,2′]bipyrazinyl], the IC50 lay in the range of 10 to 100 µM.

Turning to `CCOc1ccccc1-c1cncc(N2CCN(c3ccc(C(C)=O)cc3)CC2)n1` [compound 212, 1-{4-[6′-(2-Ethoxy-phenyl)-2,3,5,6-tetrahydro-[1,2′]bipyrazinyl-4-yl]-phenyl}-ethanone], the IC50 lay within 10 to 100 µM.

As to `CN(C)c1ccc(-c2cncc(N3CCC(c4ccccc4)CC3)n2)cc1` [compound 280, Dimethyl-{4-[6-(4-phenyl-piperidin-1-yl)-pyrazin-2-yl]-phenyl}-amine], the IC50 lay in the range of 1 to 10 µM.

In the case of `Fc1ccc(N2CCN(c3cncc(-c4ccoc4)n3)CC2)c(F)c1` [compound 201, 4-(2,4-Difluoro-phenyl)-6′-furan-3-yl-3,4,5,6-tetrahydro-2H-[1,2′]bipyrazinyl], the IC50 is 1 to 10 µM.

The same assay, now with this note: inhibition of UL 97 kinase activity; class by IC50 / % inhibition at 10 or 100 μM; read-out: Activity Class [A, B, C].
With `CN(C)c1ccc(-c2cncc(N3CCN(c4cccc(Cl)c4)CC3)n2)cc1` [compound 182, {4-[4-(3-Chloro-phenyl)-3,4,5,6-tetrahydro-2H-[1,2′]bipyrazinyl-6′-yl]-phenyl}-dimethyl-amine], the IC50 lay within 10 to 100 µM.

In the case of `Fc1ccc(N2CCN(c3cncc(-c4cccc5ccccc45)n3)CC2)c(F)c1` [compound 143, 4-(2,4-Dinfluoro-phenyl)-6′-naphthalen-1-yl-3,4,5,6-tetrahydro-2H-[1,2′]bipyrazinyl], the IC50 was 10 to 100 µM.

With `COc1ccc(Cl)cc1-c1cncc(N2CCN(c3ccccc3)CC2)n1` [compound 119, 6′-(5-Chloro-2-methoxy-phenyl)-4-phenyl-3,4,5,6-tetrahydro-2H-[1,2′]bipyrazinyl], the IC50 was 10 to 100 µM.

For `CCOc1ccc(-c2cncc(N3CCN(c4ccccc4OC)CC3)n2)cc1` [compound 92, 6′-(4-Ethoxy-phenyl)-4-(2-methoxy-phenyl)-3,4,5,6-tetrahydro-2H-[1,2′]bipyrazinyl], the IC50 was 10 to 100 µM.

Regarding `COc1ccccc1N1CCN(c2cncc(-c3ccc4ccccc4c3)n2)CC1` [compound 86, 4-(2-Methoxy-phenyl)-6′-naphthalen-2-yl-3,4,5,6-tetrahydro-2H-[1,2′]bipyrazinyl], the IC50 was 1 to 10 µM.

As for `COc1ccc(-c2cncc(N3CCN(c4ccncc4)CC3)n2)cc1OC` [compound 77, 6′-(3,4-Dimethoxy-phenyl)-4-pyridin-4-yl-3,4,5,6-tetrahydro-2H-[1,2′]bipyrazinyl], the IC50 was under 1 µM.

For `N#Cc1cccc(-c2cncc(N3CCN(c4ccncc4)CC3)n2)c1` [compound 167, 3-(4-Pyridin-4-yl-3,4,5,6-tetrahydro-2H-[1,2′]bipyrazinyl-6′-yl)-benzonitrile], the IC50 lay within 1 to 10 µM.

For `CCNc1cncc(-c2ccc(C(N)=O)cc2)n1` [compound 40, 4-(6-Ethylamino-pyrazin-2-yl)-benzamide], the IC50 was in the range of 1 to 10 µM.

Consider `c1ccc2sc(-c3cncc(N4CCN(c5ccncc5)CC4)n3)cc2c1` [compound 69, 6′-Benzo[b]thiophen-2-yl-4-pyridin-4-yl-3,4,5,6-tetrahydro-2H-[1,2′]bipyrazinyl], for which the IC50 was under 1 µM.

On to `COc1cccc(-c2cncc(N3CCN(c4ccccc4OC)CC3)n2)c1` [compound 105, 4-(2-Methoxy-phenyl)-6′-(3-methoxy-phenyl)-3,4,5,6-tetrahydro-2H-[1,2′]bipyrazinyl], for which the IC50 fell in the range of 1 to 10 µM.

In the case of `Cc1ccc(N2CCN(c3cncc(-c4ccc(N(C)C)cc4)n3)CC2)cc1` [compound 176, Dimethyl-[4-(4-p-tolyl-3,4,5,6-tetrahydro-2H-[1,2′]bipyrazinyl-6′-yl)-phenyl]-amine], the IC50 lay in the range of 10 to 100 µM.

As for `Clc1cccc(N2CCN(c3cncc(-c4ccccc4Oc4ccccc4)n3)CC2)c1` [compound 185, 4-(3-Chloro-phenyl)-6′-(2-phenoxy-phenyl)-3,4,5,6-tetrahydro-2H-[1,2′]bipyrazinyl], the IC50 was in the range of 10 to 100 µM.

In the case of `Cc1ccc(N2CCN(c3cncc(-c4ccc(F)cc4)n3)CC2)cc1` [compound 136, 6′-(4-Fluoro-phenyl)-4-p-tolyl-3,4,5,6-tetrahydro-2H-[1,2′]bipyrazinyl], the IC50 was 1 to 10 µM.

Consider `COc1ccc(N2CCN(c3cncc(-c4ccc(F)cc4F)n3)CC2)cc1OC` [compound 41, 6′-(2,4-Difluoro-phenyl)-4-(3,4-dimethoxy-phenyl)-3,4,5,6-tetrahydro-2H-[1,2′]bipyrazinyl], for which the IC50 is 10 to 100 µM.

In the case of `CSc1ccc(-c2cnc(N)c(N3CCN(c4ccncc4)CC3)n2)cc1` [compound 75, 6′-(4-Methylsulfanyl-phenyl)-4-pyridin-4-yl-3,4,5,6-tetrahydro-2H-[1,2′]bipyrazinyl-3′-ylamine], the IC50 was under 1 µM.

In the case of `CC(=O)c1ccc(N2CCN(c3cncc(-c4csc5ccccc45)n3)CC2)cc1` [compound 152, 1-[4-(6′-Benzo[b]thiophen-3-yl-2,3,5,6-tetrahydro-[1,2′]bipyrazinyl-4-yl)-phenyl]-ethanone], the IC50 was 1 to 10 µM.

As for `CC(C)(C)c1ccc(-c2cncc(N3CCN(c4ccccc4)CC3)n2)cc1` [compound 95, 6′-(4-tert-Butyl-phenyl)-4-phenyl-3,4,5,6-tetrahydro-2H-[1,2′]bipyrazinyl], the IC50 is 10 to 100 µM.

Regarding `CC(=O)c1ccc(-c2cncc(N3CCN(c4ccncc4)CC3)n2)s1` [compound 65, 1-[5-(4-Pyridin-4-yl-3,4,5,6-tetrahydro-2H-[1,2′]bipyrazinyl-6′yl)-thiophen-2-yl]-ethanone], the IC50 was under 1 µM.

On to `COc1ccc(N2CCN(c3cncc(-c4ccccc4Oc4ccccc4)n3)CC2)cc1OC` [compound 174, 4-(3,4-Dimethoxy-phenyl)-6′-(2-phenoxy-phenyl)-3,4,5,6-tetrahydro-2H-[1,2′]bipyrazinyl], for which the IC50 is 10 to 100 µM.

For `CC(=O)c1ccc(N2CCN(c3cncc(-c4ccc(C)cc4)n3)CC2)cc1` [compound 148, 1-[4-(6′-p-Tolyl-2,3,5,6-tetrahydro-[1,2′]bipyrazinyl-4-yl)-phenyl]-ethanone], the IC50 was 1 to 10 µM.

For the compound `COc1ccc(N2CCN(c3cncc(-c4cccs4)n3)CC2)cc1OC` [compound 44, 4-(3,4-Dimethoxy-phenyl)-6′-thiophen-2-yl-3,4,5,6-tetrahydro-2H-[1,2′]bipyrazinyl], the IC50 lay in the range of 1 to 10 µM.

Turning to `Fc1ccc(-c2cncc(N3CCN(c4ccncc4)CC3)n2)cc1` [compound 76, 6′-(4-Fluoro-phenyl)-4-pyridin-4-yl-3,4,5,6-tetrahydro-2H-[1,2′]bipyrazinyl], the IC50 fell in the range of 1 to 10 µM.

For the origin of these results see patent US20080194574A1, “Pyrazine Derivatives As Effective Compounds Against Infectious Diseases” (AXXIMA PHARMACEUTICALS AG, priority 2003, published 2008).
